Reference: ChEMBL document CHEMBL1153245, “A profile of the in vitro anti-tumor activity of imidazolium-based ionic liquids” (2010)

Key:
Assay type in all cases: functional
[1] = test system: SK-MEL-5; test: Anticancer activity against human SK-MEL-5 cells assessed cell growth at 10 uM after 48 hrs by sulforhodamine B assay relative to control
[2] = test system: U-251; test: Anticancer activity against human U251 cells assessed cell growth at 10 uM after 48 hrs by sulforhodamine B assay relative to control
[3] = test system: CCRF-CEM; test: Anticancer activity against human CCRF-CEM cells assessed cell growth at 10 uM after 48 hrs by sulforhodamine B assay relative to control
[4] = test system: KM12; test: Anticancer activity against human KM12 cells assessed cell growth at 10 uM after 48 hrs by sulforhodamine B assay relative to control
[5] = test system: SR; test: Anticancer activity against human SR cells assessed cell growth at 10 uM after 48 hrs by sulforhodamine B assay relative to control
[6] = test system: NCI/ADR-RES; test: Anticancer activity against human NCI/ADR-RES cells assessed cell growth at 10 uM after 48 hrs by sulforhodamine B assay relative to control
[7] = test system: HT-29; test: Anticancer activity against human HT-29 cells assessed cell growth at 10 uM after 48 hrs by sulforhodamine B assay relative to control
[8] = test system: CAKI-1; test: Anticancer activity against human Caki1 cells assessed cell growth at 10 uM after 48 hrs by sulforhodamine B assay relative to control
[9] = test system: T47D; test: Anticancer activity against human T47D cells assessed cell growth at 10 uM after 48 hrs by sulforhodamine B assay relative to control
[10] = test system: ACHN; test: Anticancer activity against human ACHN cells assessed cell growth at 10 uM after 48 hrs by sulforhodamine B assay relative to control
[11] = test system: DU-145; test: Anticancer activity against human DU145 cells assessed cell growth at 10 uM after 48 hrs by sulforhodamine B assay relative to control
[12] = test system: NCI-H23; test: Anticancer activity against human NCI-H23 cells assessed cell growth at 10 uM after 48 hrs by sulforhodamine B assay relative to control
[13] = test system: SF-295; test: Anticancer activity against human SF295 cells assessed cell growth at 10 uM after 48 hrs by sulforhodamine B assay relative to control
[14] = test system: UACC-257; test: Anticancer activity against human UACC257 cells assessed cell growth at 10 uM after 48 hrs by sulforhodamine B assay relative to control
[15] = test system: UACC-62; test: Anticancer activity against human UACC62 cells assessed cell growth at 10 uM after 48 hrs by sulforhodamine B assay relative to control
[16] = test system: NCI-H522; test: Anticancer activity against human NCI-H522 cells assessed cell growth at 10 uM after 48 hrs by sulforhodamine B assay relative to control
[17] = test system: BT-549; test: Anticancer activity against human BT549 cells assessed cell growth at 10 uM after 48 hrs by sulforhodamine B assay relative to control
[18] = test system: K562; test: Anticancer activity against human K562 cells assessed cell growth at 10 uM after 48 hrs by sulforhodamine B assay relative to control
[19] = test system: MOLT-4; test: Anticancer activity against human MOLT4 cells assessed cell growth at 10 uM after 48 hrs by sulforhodamine B assay relative to control
[20] = test system: SK-MEL-2; test: Anticancer activity against human SK-MEL-2 cells assessed cell growth at 10 uM after 48 hrs by sulforhodamine B assay relative to control
[21] = test system: NCI-H226; test: Anticancer activity against human NCI-H226 cells assessed cell growth at 10 uM after 48 hrs by sulforhodamine B assay relative to control
[22] = test system: OVCAR-3; test: Anticancer activity against human OVCAR-3 cells assessed cell growth at 10 uM after 48 hrs by sulforhodamine B assay relative to control
[23] = test system: SK-MEL-28; test: Anticancer activity against human SK-MEL-28 cells assessed cell growth at 10 uM after 48 hrs by sulforhodamine B assay relative to control
[24] = test system: SF-268; test: Anticancer activity against human SF268 cells assessed cell growth at 10 uM after 48 hrs by sulforhodamine B assay relative to control
[25] = test system: SN12C; test: Anticancer activity against human SN12C cells assessed cell growth at 10 uM after 48 hrs by sulforhodamine B assay relative to control
[26] = test system: M14; test: Anticancer activity against human M14 cells assessed cell growth at 10 uM after 48 hrs by sulforhodamine B assay relative to control
[27] = test system: OVCAR-5; test: Anticancer activity against human OVCAR5 cells assessed cell growth at 10 uM after 48 hrs by sulforhodamine B assay relative to control
[28] = test system: MDA-MB-435; test: Anticancer activity against human MDA-MB-435 cells assessed cell growth at 10 uM after 48 hrs by sulforhodamine B assay relative to control
[29] = test system: HCT-116; test: Anticancer activity against human HCT116 cells assessed cell growth at 10 uM after 48 hrs by sulforhodamine B assay relative to control
[30] = test system: A498; test: Anticancer activity against human A498 cells assessed cell growth at 10 uM after 48 hrs by sulforhodamine B assay relative to control
[31] = Anticancer activity against human RPMI8266 cells assessed cell growth at 10 uM after 48 hrs by sulforhodamine B assay relative to control
[32] = test system: HOP-92; test: Anticancer activity against human HOP92 cells assessed cell growth at 10 uM after 48 hrs by sulforhodamine B assay relative to control
[33] = test system: SW-620; test: Anticancer activity against human SW620 cells assessed cell growth at 10 uM after 48 hrs by sulforhodamine B assay relative to control
[34] = test system: HCT-15; test: Anticancer activity against human HCT15 cells assessed cell growth at 10 uM after 48 hrs by sulforhodamine B assay relative to control
[35] = test system: SF-539; test: Anticancer activity against human SF539 cells assessed cell growth at 10 uM after 48 hrs by sulforhodamine B assay relative to control
[36] = test system: Malme-3M; test: Anticancer activity against human MALME-3M cells assessed cell growth at 10 uM after 48 hrs by sulforhodamine B assay relative to control
[37] = test system: HL-60(TB); test: Anticancer activity against human HL-60(TB) cells assessed cell growth at 10 uM after 48 hrs by sulforhodamine B assay relative to control
[38] = test system: HCC 2998; test: Anticancer activity against human HCC2998 cells assessed cell growth at 10 uM after 48 hrs by sulforhodamine B assay relative to control
[39] = test system: SK-OV-3; test: Anticancer activity against human SKOV3 cells assessed cell growth at 10 uM after 48 hrs by sulforhodamine B assay relative to control
[40] = test system: SNB-75; test: Anticancer activity against human SNB75 cells assessed cell growth at 10 uM after 48 hrs by sulforhodamine B assay relative to control
[41] = test system: COLO 205; test: Anticancer activity against human COLO205 cells assessed cell growth at 10 uM after 48 hrs by sulforhodamine B assay relative to control
[42] = test system: MDA-MB-231; test: Anticancer activity against human MDA-MB-231 cells assessed cell growth at 10 uM after 48 hrs by sulforhodamine B assay relative to control
[43] = test system: OVCAR-4; test: Anticancer activity against human OVCAR4 cells assessed cell growth at 10 uM after 48 hrs by sulforhodamine B assay relative to control

COCC[n+]1ccn(C)c1.O=S(=O)([N-]S(=O)(=O)C(F)(F)F)C(F)(F)F
Activity [1]: 100.51%
Activity [2]: 91.58%
Activity [3]: 55.66%
Activity [4]: 105.57%
Activity [5]: 116.69%
Activity [6]: 100.1%
Activity [7]: 111.85%
Activity [8]: 91.87%
Activity [9]: 100.59%
Activity [10]: 96.19%
Activity [11]: 99.43%
Activity [12]: 96.12%
Activity [13]: 112.28%
Activity [14]: 100.25%
Activity [15]: 105.79%
Activity [16]: 84.3%
Activity [17]: 96.44%
Activity [18]: 109.67%
Activity [19]: 105.9%
Activity [20]: 93.96%
Activity [21]: 100.3%
Activity [22]: 116.33%
Activity [23]: 106.63%
Activity [24]: 107.22%
Activity [25]: 96.96%
Activity [26]: 110.1%
Activity [27]: 112.96%
Activity [28]: 117.7%
Activity [29]: 102.12%
Activity [30]: 75.43%
Activity [31]: 62.23%
Activity [32]: 71.88%
Activity [33]: 99.89%
Activity [34]: 101.44%
Activity [35]: 94.09%
Activity [36]: 125.61%
Activity [37]: 103.77%
Activity [38]: 101.04%
Activity [39]: 107.49%
Activity [40]: 80.79%
Activity [41]: 130.61%
Activity [42]: 120.14%
Activity [43]: 105.25%

CCCCCCCCCCCCCCCCCC[n+]1ccn(C)c1.FC(F)(F)C(F)(F)[P-](F)(F)(F)(C(F)(F)C(F)(F)F)C(F)(F)C(F)(F)F
Activity [1]: -77.4%
Activity [2]: -39.24%
Activity [3]: 35.34%
Activity [4]: -56.04%
Activity [5]: 24.53%
Activity [6]: -50.87%
Activity [7]: -41.19%
Activity [8]: -71.63%
Activity [9]: 32.25%
Activity [10]: -53.6%
Activity [11]: 7.06%
Activity [12]: -62.26%
Activity [13]: -26.82%
Activity [14]: -53.5%
Activity [15]: -73.94%
Activity [16]: -63.43%
Activity [17]: -56.11%
Activity [18]: 26.87%
Activity [19]: 17.16%
Activity [20]: -54.7%
Activity [21]: -58.27%
Activity [22]: -53.86%
Activity [23]: -45.82%
Activity [24]: -47.08%
Activity [25]: -75.69%
Activity [26]: -26.94%
Activity [27]: -56.76%
Activity [28]: -52.89%
Activity [29]: -57.3%
Activity [30]: -47.4%
Activity [31]: 49.96%
Activity [32]: -39.5%
Activity [33]: -25.6%
Activity [34]: -23.91%
Activity [35]: -80.42%
Activity [36]: -51.72%
Activity [37]: 15.34%
Activity [38]: -80.57%
Activity [39]: 10.45%
Activity [40]: -47.53%
Activity [41]: 5.01%
Activity [42]: -73.64%
Activity [43]: -18.12%
